Laboratory results as given in patent publication US20150152441A1, “METHODS AND SYSTEMS FOR IMPROVING FERMENTATION EFFICIENCY” (LanzaTech New Zealand Limited, priority 2013, published 2015).

How the values were obtained:
[1] = system: Clostridium autoethanogenum culture; assay: Determination of effect of BTEX on fermentation (continuous CO gas fermentation; impact seen as rising pH and/or effect on CO and H2 uptake); assay type: cell-based; conditions: for Liquid tolerance level / Liquid impact level (ppm): level in fermentation broth, compound added individually; for Liquid tolerance level: addition lowered until no effect was observed; for Liquid impact level (ppm): impact = rising pH and/or effect on CO and H2 uptake
Experimental: Media was prepared according to the composition described in Tables 1-3 to a volume of 1.5 L and 1.5 ml of resazurin added. The solution was heated and agitated whilst degassed with N2. A Na2S drip was started at a rate of 0.5 ml/hr and temperature of the bioreactor set to 37° C. The pH was adjusted to 5.0 with NH4OH and chromium was added to adjust the ORP to −200 mV. The bioreactor was then supplied with RMG (43% CO, 20% CO2, 2.5% H2 and 33% N2) at a flow rate of 50 ml/min. The solution was inoculated with 150 ml of an actively growing Clostridium autoethanogenum culture. The fermentation was operated continuously for a period of 41 days at dilution rate 1.5. At day 26.8, Toluene was added to the gas phase. To achieve this, the inflow gas was sparged through a toluene solution, which allowed toluene to accumulate in the reactor. Toluene was allowed to accumulate for 17 hours. The fermentation was allowed to recover and the experiment was repeated on day 27.8.
The reactor was allowed to recover. On day 35 Benzene was added to the gas phase. To achieve this, the inflow gas was sparged through a benzene solution, which allowed benzene to accumulate in the reactor. […] Benzene was allowed to accumulate to higher concentrations.
The effect of the addition of xylene and ethylbenzene were also performed using the same techniques. Based on vapour pressure the compounds would evaporate at a certain rate into gaseous phase.
The effect of the introduction of the various BTEX compounds on bacterial culture performance was determined by measurement of the following: culture density, metabolite concentration (ethanol, acetate, etc), oxidation-reduction potential, pH, carbon monoxide and hydrogen consumption. The compound accumulation in the gas and culture liquid phase was determined by GC-MS measurements.
Liquid tolerance levels were determined by lowering the addition until no effect was observed.

[2] = cited from earlier work

Compound: c1ccccc1 [Benzene]
- level in broth at which the compound began to effect the fermentation ([1]; FIG. 5-7): ≥ 50 ppm
- accumulation resulting in an increase in pH and decrease in CO uptake ([1]; FIG. 6, 7): greater than 50 ppm
- accumulation level with no observable effect on the fermentation ([1]; benzene added to gas phase on day 35): ≤ 40 ppm
- Liquid tolerance level [1]: <40 ppm
- Liquid impact level (ppm) [1]: >40 ppm
- mm Hg vapor pressure (25° C.) [2]: 76 mm Hg

Compound: CCc1ccccc1 [Ethyl Benzene]
- effect of addition to the reactor on the fermentation [1]: same effect was also seen
- Liquid tolerance level [1]: <10 ppm
- Liquid impact level (ppm) [1]: >20 ppm
- mm Hg vapor pressure (25° C.) [2]: 7 mm Hg

Compound: Cc1ccccc1 [Toluene]
- level in fermentation broth at which CO uptake decreased, with rising pH trend ([1]; after 3.5 hours exposure, FIG. 2-4): greater than 100 ppm
- level in broth below which CO uptake and pH returned to pre-addition levels (fermentation recovers) ([1]; after toluene addition was stopped): below 100 ppm
- effect on carbon monoxide utilisation of the microorganism ([1]; excess levels in fermentation solution): clear negative effect
- Liquid tolerance level [1]: <25 ppm
- Liquid impact level (ppm) [1]: >50 ppm
- mm Hg vapor pressure (25° C.) [2]: 22 mm Hg

Compound: c1ccc2ccccc2c1 [naphthalene]
- effect of addition to the reactor on the fermentation [1]: does not have a negative effect on the fermentation

Compound: Xylenes
- effect of addition to the reactor on the fermentation [1]: same effect was also seen
- Liquid tolerance level [1]: <10 ppm
- Liquid impact level (ppm) [1]: >100 ppm
